Measurements taken from paper PMC6713104, “New peptide derived antimalaria and antimicrobial agents bearing sulphonamide moiety” (Journal of Enzyme Inhibition and Medicinal Chemistry, 2019).
In brackets after ≈: the same amount, converted by molar mass. Where two headings read alike, the source gives them in different places.

What was measured:
[1] = Renal or kidney function test; format: in vivo; conditions: mice, 10 mg/kg
Source text: (§1) Twenty-four hours before the injecting the compounds, the blood sample of five mice was taken and it was also taken after the last day of treatment, the animals were sacrificed by cervical dislocation and the blood samples were collected by heart puncture. The blood samples for haematological parameters (red blood cell (RBC) count, white blood cell (WBC) count, packed cell volume (PCV), and hemoglobin (HGB)) were collected into EDTA bottles and analyzed using an automated machine (Automated CBC Analyzer: Sysmex KX-21). Kidney function tests carried out with the blood of the rats fed with the sulfonamide derivatives were, creatinine and albunim. The method reported by Kaplan and Tengv[33] was used in the determination of creatinine.

E. coli = assay: Antimicrobial MIC, agar cup diffusion; format: cell-based; conditions: Escherichia coli, read-out: MIC (minimum inhibitory concentration)
S. typhi = assay: Antimicrobial MIC, agar cup diffusion; format: cell-based; conditions: Salmonella enterica, read-out: MIC (minimum inhibitory concentration)
P. falciparum strain W2 = assay: In vitro antimalarial assay; format: cell-based; conditions: for MIC: Plasmodium falciparum, W2, P. falciparum
[2] = system: Plasmodium berghei infection in mice; assay: In vivo antimalaria test; conditions: P. berghei infected mice; for ability to inhibit parasitaemia compared to the control drug: in words; for inhibition in vivo at 100 mg/kg / inhibition in vivo at 200 mg/kg: Plasmodium berghei, oral
Protocol: Experimental Design and Treatment of Mice. Methods of Peter et al.[30] and Kalra et al.[31] for antiplasmodial assay against Plasmodium berghei infection in mice with some modifications were employed. About eighty infected mice were randomly divided into five groups, each having […] mice. The inoculum was prepared from a donor mouse with rising parasitemia of 60.42%. After 7 days of infection, animals begin to receive treatment (100 and 200 mg/kg b wt.) of the synthesized compounds (7a–7n) for 12 days with constant check of the percentage of parasitemia after a 4-day interval. Artemisinin (100 and 200 mg/kg body weight.) was given to the other mice in group three as positive control, group four was not treated and group five was not infected. All the compounds and the drugs were given orally by using a standard intragastric tube. For all parasitemia determination, blood samples were collected from tail snip of each mouse and thin smears prepared and stained with 10% Giemsa solution. The uniform fields of each stained slide (for each mouse) were examined under microscope with an oil immersion objective of 100X magnification power and average percent of parasitemia was determined.
To determine the in vivo activity, the compounds were tested against P. berghei NK(65 Strain) infection mice., the animals were obtained from Nigeria institute for Trypanosoma and onchocercarioses Research (NTIR) Vom, Plateau State Nigeria. The permission and approval for the use of animals in this experiment were granted by the Animal Ethics Committee, Federal College of Vetrenary Medical Laboratory, Vom, Plateau State. Method of Peter et al.[30], for antiplasmodial assay against P. berghei in mice with some modification were employed. Artemisimin was used as treated control of the experiments. The percentage inhibition of parasite multiplication was calculated comparing the treated group with untreated group by means of the following formula[39] [(A − B)/A] × 100; where A = parasitaemia in the untreated group and B = parasitemia in the test group. […] Most of the compounds were active against P. berghei after 7 days post-infection by reducing the parasiteamia by at least 40% when in a dose of 100 mg/kg (Table 5). The inhibition of parasitaemia increased on 12th day post infection for almost all the compounds. […] However in consideration of the compounds ability to inhibit parasitaemia to the control drug. […] These compounds should be considered for further studies because of its promising activities.

Liver function tests = format: in vivo; design: Glucose: unit not given here; conditions: mice, 10 mg/kg
Source text: as §1, with “KX-21). The liver” for “KX-21). Kidney”, “derivatives were aspartate aminotransperase (AST), alanine transaminase (ALT)” for “derivatives were, creatinine”, “and alkaline phosphatase (ALP). Standard laboratory procedure according to Reitman” for “and albunim. The method reported by Kaplan”, “and Franke[32]” for “and Tengv[33]”, “used for” for “used in”, “of parameters.” for “of creatinine.”

C. albicans = assay: Antimicrobial MIC, agar cup diffusion; format: cell-based; conditions: Candida albicans, read-out: MIC (minimum inhibitory concentration)
Haematological analysis = format: in vivo, mice
Source text: as §1, with “KX-21).” for “KX-21). Kidney function tests carried out with the blood of the rats fed with the sulfonamide derivatives were, creatinine and albunim. The method reported by Kaplan and Tengv[33] was used in the determination of creatinine.”
The blood samples for haematological parameters (red blood cell (RBC) count, white blood cell (WBC) count, packed cell volume (PCV), and haemoglobin (HGB)) were collected into EDTA bottles and analyzed using an automated machine (Automated CBC Analyzer: Sysmex KX-21) (Table 8). From the analysis, even though there is a decrease in the value of RBC, PCV and HB, it is observed that there is no significant changes in the parameters that were analyzed for the control and the test compounds.

A. niger = assay: Antimicrobial MIC, agar cup diffusion; format: cell-based; conditions: Aspergillus niger, read-out: MIC (minimum inhibitory concentration)
K. pneumoniae = assay: Antimicrobial MIC, agar cup diffusion; format: cell-based; conditions: Klebsiella pneumoniae, read-out: MIC (minimum inhibitory concentration)
B. subtilis = assay: Antimicrobial MIC, agar cup diffusion; format: cell-based; conditions: for MIC: Bacillus subtilis, B. subtilis, read-out: MIC (minimum inhibitory concentration); for activity against Bacillus compared with ciprofloxacin: in words
[3] = 48 h, >99% of parasites inhibited from developing to schizonts
[4] = 168 h, read-out: % inhibition 7 days post-treatment (100 mg/kg), day 7
[5] = 168 h, read-out: % inhibition 7 days post-treatment (200 mg/kg), day 7
[6] = 288 h, read-out: % inhibition 12 days post-treatment (100 mg/kg), day 12
[7] = 288 h, read-out: % inhibition 12 days post-treatment (200 mg/kg), day 12

`Cc1ccc(NC(=O)CNC(=O)C(C)NS(=O)(=O)c2ccccc2)cc1` (stereo not drawn) [Compound 7e] showed an Albumin ([1]; After) of 3.5 g/dL, a Creatinine ([1]; After) of 0.3 mg/dL and an Albumin ([1]; Before) of 4.1 g/dL. It also gave a Creatinine ([1]; Before) of 0.3 mg/dL, an MIC (E. coli) of 6330 µg/mL (≈ 16900 µM) and an MIC (S. typhi) of 194 µg/mL (≈ 517 µM). For the same molecule, the MIC (P. falciparum strain W2) was 30 µM (≈ 11.3 µg/mL), the MIC (P. falciparum strain W2; [3]) was 0.05 µM (≈ 0.0188 µg/mL) and the “ability to inhibit parasitaemia compared to the control drug” value [2] was “almost the same or better activity compared to the artemisinin”. The inhibition in vivo at 100 mg/kg [2, 4] was 62.3%, the inhibition in vivo at 200 mg/kg [2, 5] was 40.2% and the inhibition in vivo at 100 mg/kg [2, 6] was 66.7%. It also gave an inhibition in vivo at 200 mg/kg [2, 7] of 50.7%, an ALT (Liver function tests; After) of 22.0 µ/L and an AST (Liver function tests; After) of 60.5 µ/L. The Bilirubin (Liver function tests; After) was 0.2 mg/dL, the Glucose (Liver function tests; After) was 5.0 and the T.P. (Liver function tests; After) was 4.5 g/dL. It also gave an ALT (Liver function tests; Before) of 24.0 µ/L, an AST (Liver function tests; Before) of 64.0 µ/L and a Bilirubin (Liver function tests; Before) of 0.3 mg/dL. For the same molecule, the Glucose (Liver function tests; Before) was 5.8, the T.P. (Liver function tests; Before) was 5.8 g/dL and the melting point was 160 to 162 °C. It also gave an MIC (C. albicans) of 28.8 µg/mL (≈ 76.7 µM), an HB (Haematological analysis; After treatment) of 11.0 g/dL and a PCV (Haematological analysis; After treatment) of 35%. For the same molecule, the RBC (Haematological analysis; After treatment) was 6.0 × 10^6 mm^3, the WBC (Haematological analysis; After treatment) was 10.5 × 10^3 mm^3 and the HB (Haematological analysis; Before treatment) was 14.1 g/dL. For the same molecule, the PCV (Haematological analysis; Before treatment) was 36%, the RBC (Haematological analysis; Before treatment) was 6.85 × 10^6 mm^3 and the WBC (Haematological analysis; Before treatment) was 12.2 × 10^3 mm^3. It also gave an MIC (A. niger) of 2090 µg/mL (≈ 5560 µM).

With `Cc1ccc(NC(=O)CNC(=O)C(C)NS(=O)(=O)c2ccc(C)cc2)cc1` (stereo not drawn) [Compound 7l, 2–(4-methylphenylsulfonamido)-N-(2-oxo-2-(p-tolylamino)ethyl)propanamide] the MIC (E. coli) was 169 µg/mL (≈ 434 µM), the MIC (S. typhi) was 57 µg/mL (≈ 146 µM) and the MIC (P. falciparum strain W2; [3]) was 0.93 µM (≈ 0.362 µg/mL). The inhibition in vivo at 100 mg/kg [2, 4] was 38.2%, the inhibition in vivo at 200 mg/kg [2, 5] was 60.7% and the inhibition in vivo at 100 mg/kg [2, 6] was 41.7%. For the same molecule, the inhibition in vivo at 200 mg/kg [2, 7] was 74.6%, the MIC (K. pneumoniae) was 107 µg/mL (≈ 275 µM) and the MIC (B. subtilis) was 245 µg/mL (≈ 629 µM). For the same molecule, the melting point was 120 to 122 °C, the MIC (C. albicans) was 174 µg/mL (≈ 447 µM) and the MIC (A. niger) was 123 µg/mL (≈ 316 µM).

In the case of `CC(NS(=O)(=O)c1ccccc1)C(=O)NCC(=O)Nc1ccc2ccccc2c1` (stereo not drawn) [Compound 7g, N-(2-(naphthalene-2-ylamino)-2-oxoethyl)-2-(phenylsulfonamido)propanamide], the MIC (S. typhi) is reported as 79 µg/mL (≈ 192 µM), the MIC (P. falciparum strain W2; [3]) is reported as 3.23 µM (≈ 1.33 µg/mL) and the inhibition in vivo at 100 mg/kg [2, 4] is reported as 27.5%. The inhibition in vivo at 200 mg/kg [2, 5] was 54.7%, the inhibition in vivo at 100 mg/kg [2, 6] was 36.8% and the inhibition in vivo at 200 mg/kg [2, 7] was 51.9%. The MIC (K. pneumoniae) was 166 µg/mL (≈ 403 µM), the MIC (B. subtilis) was 141 µg/mL (≈ 343 µM) and the “activity against Bacillus compared with ciprofloxacin” value (B. subtilis) was “greater activity against Bacillus than ciprofloxacin”. The melting point was 170 to 172 °C, the MIC (C. albicans) was 29.7 µg/mL (≈ 72.2 µM) and the MIC (A. niger) was 158 µg/mL (≈ 384 µM).

Molecule `CC(NS(=O)(=O)c1ccccc1)C(=O)NCC(=O)Nc1ccc(Cl)cc1` (stereo not drawn) [Compound 7b] has an MIC (E. coli) of 467 µg/mL (≈ 1180 µM), an MIC (S. typhi) of 602 µg/mL (≈ 1520 µM) and an MIC (P. falciparum strain W2; [3]) of 0.87 µM (≈ 0.344 µg/mL). For the same molecule, the inhibition in vivo at 100 mg/kg [2, 4] was 51.3%, the inhibition in vivo at 200 mg/kg [2, 5] was 57.6% and the inhibition in vivo at 100 mg/kg [2, 6] was 55.2%. The inhibition in vivo at 200 mg/kg [2, 7] was 53.4%, the MIC (K. pneumoniae) was 1690 µg/mL (≈ 4270 µM) and the MIC (B. subtilis) was 129 µg/mL (≈ 326 µM). For the same molecule, the “activity against Bacillus compared with ciprofloxacin” value (B. subtilis) was “greater activity against Bacillus than ciprofloxacin”, the melting point was 140 to 142 °C and the MIC (C. albicans) was 135 µg/mL (≈ 341 µM). It also gave an MIC (A. niger) of 100 µg/mL (≈ 253 µM).

For `Cc1ccc(S(=O)(=O)NC(C)C(=O)NCC(=O)Nc2cccc(Cl)c2)cc1` (stereo not drawn) [Compound 7h, N-(2-((3-chlorophenyl)amino)-2-oxoethyl)-2–(4-methylphenylsulfonamido)propanamide], the Albumin ([1]; After) was 3.9 g/dL, the Creatinine ([1]; After) was 0.3 mg/dL and the Albumin ([1]; Before) was 3.9 g/dL. The Creatinine ([1]; Before) was 0.3 mg/dL, the MIC (E. coli) was 239 µg/mL (≈ 583 µM) and the MIC (S. typhi) was 1290 µg/mL (≈ 3140 µM). The MIC (P. falciparum strain W2) was 50 µM (≈ 20.5 µg/mL), the MIC (P. falciparum strain W2; [3]) was 0.03 µM (≈ 0.0123 µg/mL) and the “in vitro antimalarial activity relative to other compounds and standard drugs” value (P. falciparum strain W2; in words) was “best activity”. The “ability to inhibit parasitaemia compared to the control drug” value [2] was “almost the same or better activity compared to the artemisinin”, the inhibition in vivo at 100 mg/kg [2, 4] was 61.4% and the inhibition in vivo at 200 mg/kg [2, 5] was 49.9%. For the same molecule, the inhibition in vivo at 100 mg/kg [2, 6] was 57.8%, the inhibition in vivo at 200 mg/kg [2, 7] was 55.2% and the MIC (K. pneumoniae) was 5250 µg/mL (≈ 12800 µM). For the same molecule, the ALT (Liver function tests; After) was 24.5 µ/L, the AST (Liver function tests; After) was 69.5 µ/L and the Bilirubin (Liver function tests; After) was 0.3 mg/dL. The Glucose (Liver function tests; After) was 5.5, the T.P. (Liver function tests; After) was 5.5 g/dL and the ALT (Liver function tests; Before) was 25.4 µ/L. It also gave an AST (Liver function tests; Before) of 65.0 µ/L, a Bilirubin (Liver function tests; Before) of 0.4 mg/dL and a Glucose (Liver function tests; Before) of 5.9. For the same molecule, the T.P. (Liver function tests; Before) was 6.0 g/dL, the MIC (B. subtilis) was 214 µg/mL (≈ 522 µM) and the melting point was 120 to 122 °C. The MIC (C. albicans) was 34 µg/mL (≈ 82.9 µM), the HB (Haematological analysis; After treatment) was 10.0 g/dL and the PCV (Haematological analysis; After treatment) was 34%. For the same molecule, the RBC (Haematological analysis; After treatment) was 5.9 × 10^6 mm^3, the WBC (Haematological analysis; After treatment) was 9.3 × 10^3 mm^3 and the HB (Haematological analysis; Before treatment) was 13.4 g/dL. For the same molecule, the PCV (Haematological analysis; Before treatment) was 39%, the RBC (Haematological analysis; Before treatment) was 7.3 × 10^6 mm^3 and the WBC (Haematological analysis; Before treatment) was 9.4 × 10^3 mm^3. It also gave an MIC (A. niger) of 31.6 µg/mL (≈ 77.1 µM).
